What was measured:
[1] = test system: oat, wild; assay: Test C postemergence; type: in vivo, Avena fatua
Method in brief: (§1)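 Visual rating, 0–100 scale (0 no effect, 100 complete control), vs untreated controls after 13–15 d greenhouse. Pre: seeds in loam/sand, treated at sowing. Post: plants in peat-based mix, 1- to 4-leaf (2–18 cm). Solvent + surfactant formulation, non-phytotoxic.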

[2] = test system: velvetleaf; assay: Test C preemergence; type: in vivo, Abutilon theophrasti; settings: preemergence
Method in brief: as §1

[3] = test system: kochia; assay: Test C postemergence; type: in vivo, Kochia scoparia
Method in brief: as §1

[4] = test system: barnyardgrass; assay: Test A postemergence; type: in vivo, Echinochloa crus-galli
Method in brief: (§2)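 Seeds were sown in a loam soil–sand blend and given a directed soil spray preemergence; postemergence plants at 2–10 cm, one- to two-leaf stage, were sprayed with compound in non-phytotoxic solvent with surfactant. After about 10 days in a greenhouse, injury was visually rated against untreated controls (0 = no effect, 100 = complete control).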

[5] = test system: corn; assay: Test A postemergence; type: in vivo, Zea mays
Method in brief: as §2

[6] = test system: morningglory; assay: Test A postemergence; type: in vivo, Ipomoea spp.
Method in brief: as §2

[7] = test system: crabgrass, large; assay: Test A postemergence; type: in vivo, Digitaria sanguinalis
Method in brief: as §2

[8] = test system: ryegrass, Italian; assay: Test C postemergence; type: in vivo, Lolium multiflorum; settings: for Plant response rating, Ryegrass, Italian: postemergence
Method in brief: as §1

[9] = test system: crabgrass, large; assay: Test C preemergence; type: in vivo, Digitaria sanguinalis; settings: preemergence
Method in brief: as §1

[10] = test system: soybean; assay: Test C postemergence; type: in vivo, Glycine max
Method in brief: as §1

[11] = test system: oilseed rape; assay: Test C postemergence; type: in vivo, Brassica napus
Method in brief: as §1

[12] = test system: nutsedge, yellow; assay: Test C preemergence; type: in vivo, Cyperus esculentus; settings: preemergence
Method in brief: as §1

[13] = test system: pigweed; assay: Test A postemergence; type: in vivo, Amaranthus retroflexus
Method in brief: as §2

[14] = test system: barnyardgrass; assay: Test C preemergence; type: in vivo, Echinochloa crus-galli; settings: preemergence
Method in brief: as §1

[15] = test system: barnyardgrass; assay: Test A preemergence; type: in vivo, Echinochloa crus-galli; settings: preemergence
Method in brief: as §2

[16] = test system: morningglory; assay: Test C preemergence; type: in vivo, Ipomoea coccinea; settings: preemergence
Method in brief: as §1

[17] = Postemergence, 31 g ai/ha, visually evaluated after 13 to 15 days
[18] = postemergence, 62 g ai/ha, scale 0 to 100
[19] = postemergence, 250 g ai/ha, scale 0 to 100 (0 no effect, 100 complete control)
[20] = postemergence, 125 g ai/ha, scale 0 to 100, 0 no effect, 100 complete control
[21] = 31 g ai/ha, visual rating, scale 0 to 100 (0 no effect, 100 complete control), 13 to 15 days
[22] = 62 g ai/ha, scale 0 to 100 (0 no effect, 100 complete control), 13 to 15 days
[23] = 125 g ai/ha, 13 to 15 days, scale 0 to 100, 0 = no effect, 100 = complete control
[24] = 250 g ai/ha, scale 0 to 100, 0 is no effect, 100 is complete control
[25] = Postemergence, 500 g ai/ha, 0 to 100 scale (0 no effect, 100 complete control)
[26] = postemergence, 125 g ai/ha, about 10 days, visual rating on 0 to 100 scale (0 no effect, 100 complete control)

## O=C(NC1CC1)c1cc(CCCl)n(Cc2ccnc(C(F)(F)F)c2)n1 [Compound 144]
[1]; [17]
  Plant response rating (scale of 0 to 100 where 0 is no effect and 100 is complete control), Oat, Wild: 15
[1]; [18]
  Oat, Wild plant response rating: 10
[1]; [19]
  Plant response rating, Oat, Wild: 45
[1]; [20]
  Plant response rating, Oat, Wild: 20
[2]; [21]
  Velvetleaf plant response rating: 15
[2]; [22]
  Velvetleaf plant response rating: 75
[2]; [23]
  Plant response rating, Velvetleaf: 100
[2]; [24]
  Velvetleaf plant response rating: 100
[3]; [17]
  Plant response rating (scale of 0 to 100 where 0 is no effect and 100 is complete control), Kochia: 75
[3]; [18]
  Kochia plant response rating: 85
[3]; [19]
  Plant response rating, Kochia: 95
[3]; [20]
  Plant response rating, Kochia: 95
[4]; [25]
  Barnyardgrass plant response rating: 90
[4]; [26]
  Barnyardgrass plant response rating: 70
[5]; [25]
  Corn plant response rating: 90
[5]; [26]
  Corn plant response rating: 50
[6]; [25]
  Morningglory plant response rating: 90
[6]; [26]
  Morningglory plant response rating: 80
[7]; [25]
  Crabgrass, Large plant response rating: 90
[7]; [26]
  Crabgrass, Large plant response rating: 90
[8]; [17]
  Plant response rating (scale of 0 to 100 where 0 is no effect and 100 is complete control), Ryegrass, Italian: 5
[8]; 250 g ai/ha, scale 0 to 100 (0 no effect, 100 complete control)
  Plant response rating, Ryegrass, Italian: 5
[8]; 125 g ai/ha, scale 0 to 100, 0 no effect, 100 complete control
  Plant response rating, Ryegrass, Italian: 5
[9]; [21]
  Crabgrass, Large plant response rating: 100
[9]; [22]
  Crabgrass, Large plant response rating: 100
[9]; [23]
  Plant response rating, Crabgrass, Large: 100
[9]; [24]
  Crabgrass, Large plant response rating: 100
[10]; [17]
  Plant response rating (scale of 0 to 100 where 0 is no effect and 100 is complete control), Soybean: 35
[10]; [19]
  Plant response rating, Soybean: 95
[10]; [20]
  Soybean plant response rating: 75
[11]; [17]
  Plant response rating (scale of 0 to 100 where 0 is no effect and 100 is complete control), Oilseed Rape: 50
[11]; [18]
  Oilseed Rape plant response rating: 50
[11]; [19]
  Plant response rating, Oilseed Rape: 65
[11]; [20]
  Plant response rating, Oilseed Rape: 60
[12]; [21]
  Nutsedge, Yellow plant response rating: 0
[12]; [22]
  Nutsedge, Yellow plant response rating: 45
[12]; [23]
  Plant response rating, Nutsedge, Yellow: 65
[12]; [24]
  Nutsedge, Yellow plant response rating: 90
[13]; [25]
  Pigweed plant response rating: 100
[13]; [26]
  Pigweed plant response rating: 100
[14]; [21]
  Barnyardgrass plant response rating: 75
[14]; [22]
  Barnyardgrass plant response rating: 98
[14]; [23]
  Plant response rating, Barnyardgrass: 100
[14]; [24]
  Barnyardgrass plant response rating: 100
[15]; 125 g ai/ha, visual injury, 0 to 100 scale, approx. 10 days
  Barnyardgrass plant response rating: 100
[15]; 500 g ai/ha, visual injury after approx. 10 days, 0 to 100 scale (0 no effect, 100 complete control)
  Barnyardgrass plant response rating: 100
[16]; [21]
  Morningglory plant response rating: 60
[16]; [22]
  Morningglory plant response rating: 100
[16]; [23]
  Plant response rating, Morningglory: 100
[16]; [24]
  Morningglory plant response rating: 100

Reference: patent US20150105252A1, “SUBSTITUTED PYRAZOLES AS HERBICIDES” (E I DU PONT DE NEMOURS AND COMPANY, priority 2013, published 2015)
